Patent publication US9265253B2, “Use of macrocyclic picolinamides as fungicides” (DOW AGROSCIENCES LLC, priority 2013, dated 2016)
Where two headings read alike, the source gives them in different places.

Experiments:
[1] = system: Mycosphaerella graminicola; Anamorph: Septoria tritici; test: Leaf Blotch of Wheat (SEPTTR) disease control; type: in vivo; settings: Zymoseptoria tritici; for pest or weed control at 100 ppm: rate 100 ppm; for pest or weed control at 121.5 g/ha: rate 121.5 g/H
How it was run: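 Seedlings of variety Yuma grew until the first leaf fully emerged. Fungicide solution (acetone/water with Triton X-100) was sprayed to run-off; plants were inoculated with S. tritici spores before or after spraying, held one day dark and two to three days lit at 100% humidity, then kept at 20° C.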

[2] = system: Puccinia triticina; Synonym: Puccinia recondite f. Sp. Tritici; test: Wheat Brown Rust (PUCCRT) disease control; type: in vivo; settings: Puccinia triticina, topical; for pest or weed control at 100 ppm: rate 100 ppm; for pest or weed control at 121.5 g/ha: rate 121.5 g/H
How it was run: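 Brown rust on first-leaf Yuma wheat: spore inoculation before or after spray application (acetone/Triton X-100 solution, or EC with Trycol in track spray), overnight 100% RH at 22 °C, disease developed at 24 °C. Severity scored 0–100% and converted to percent control against untreated.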

[3] = 24 h, 1 Day Protectant, read-out: SEPTTR 1 DP disease control
[4] = 72 h, 3 Day Curative, read-out: SEPTTR 3 DC disease control
[5] = 24 h, 1 Day Protectant, read-out: PUCCRT 1 DP disease control
[6] = 72 h, 3 Day Curative, read-out: PUCCRT 3 DC disease control

SMILES | pest or weed control at 100 ppm [1, 3] | pest or weed control at 100 ppm [1, 4] | pest or weed control at 100 ppm [2, 5] | pest or weed control at 100 ppm [2, 6] | pest or weed control at 121.5 g/ha [1, 3] | pest or weed control at 121.5 g/ha [1, 4] | pest or weed control at 121.5 g/ha [2, 5] | pest or weed control at 121.5 g/ha [2, 6]
CCOCC(=O)Oc1c(OC)ccnc1C(=O)N[C@H]1CCC[C@H](CCOC)[C@@H](Oc2ccccc2)[C@H](C)OC1=O [Compound F186] | 80 to 100% | 80 to 100% | 80 to 100% | 80 to 100% | – | – | – | –
COc1ccnc(C(=O)N[C@H]2CCC[C@H](Cc3ccccc3)[C@@H](Oc3ccccc3)[C@H](C)OC2=O)c1O [Compound F20] | 80 to 100% | 80 to 100% | 80 to 100% | 0 to 80% | – | – | – | –
CCOCC(=O)OCOc1c(OC)ccnc1C(=O)N[C@H]1CCC[C@H](CCC(C)C)[C@@H](OC)[C@H](C)OC1=O [Compound F163] | 80 to 100% | 80 to 100% | 80 to 100% | 0 to 80% | 80 to 100% | 0 to 80% | 0 to 80% | 0 to 80%
CCOCC(=O)OCOc1c(OC)ccnc1C(=O)N[C@H]1CCC[C@H](CCC(C)C)[C@@H](Oc2ccccc2)[C@H](C)OC1=O [Compound F158] | 80 to 100% | 80 to 100% | 80 to 100% | 80 to 100% | 80 to 100% | 80 to 100% | 80 to 100% | 0 to 80%
COc1ccnc(C(=O)N[C@H]2CCC[C@@H]3CCO[C@H]3[C@H](C)OC2=O)c1OCOC(C)=O [Compound F143] | 0 to 80% | 0 to 80% | 80 to 100% | 80 to 100% | 0 to 80% | – | 80 to 100% | 80 to 100%
COc1ccnc(C(=O)N[C@H]2CCC[C@H](CC3CCCC3)[C@@H](Oc3ccccc3)[C@H](C)OC2=O)c1OC(C)=O [Compound F71] | 80 to 100% | 80 to 100% | 80 to 100% | 80 to 100% | 80 to 100% | 80 to 100% | 80 to 100% | 0 to 80%
CCCO[C@@H]1[C@@H](Cc2ccc(F)cc2)CCC[C@H](NC(=O)c2nccc(OC)c2O)C(=O)O[C@H]1C [Compound F13] | 80 to 100% | 80 to 100% | – | 0 to 80% | – | – | – | –
COCCC(=O)Oc1c(OC)ccnc1C(=O)N[C@H]1CCC[C@H](CC2CCCC2)[C@@H](Oc2ccccc2)[C@H](C)OC1=O [Compound F153] | 80 to 100% | 80 to 100% | 80 to 100% | 80 to 100% | 80 to 100% | 80 to 100% | 80 to 100% | 0 to 80%
COc1ccnc(C(=O)N[C@H]2CCC[C@H](CC3CCCCC3)[C@@H](OCC3CC3)[C@H](C)OC2=O)c1O [Compound F9, N-((3S,7R,8R,9S)-7-(cyclohexylmethyl)-8-(cyclopropylmethoxy)-9-methyl-2-oxooxonan-3-yl)-3-hydroxy-4-methoxypicolinamide] | 80 to 100% | 80 to 100% | 80 to 100% | 80 to 100% | – | – | – | –
COc1ccnc(C(=O)N[C@H]2CCC[C@H](Cc3ccco3)[C@@H](OCC(C)C)[C@H](C)OC2=O)c1OCOC(C)=O [Compound F120] | – | – | – | – | 80 to 100% | 0 to 80% | 80 to 100% | –
COc1ccnc(C(=O)N[C@H]2CCC[C@H](Cc3ccco3)[C@@H](OCC(C)C)[C@H](C)OC2=O)c1O [Compound F34] | 80 to 100% | 80 to 100% | 80 to 100% | 80 to 100% | – | – | – | –
COc1ccnc(C(=O)N[C@H]2CCC[C@H](CCC(C)C)[C@@H](OCC3CC3)[C@H](C)OC2=O)c1O [Compound F3] | 80 to 100% | 80 to 100% | 80 to 100% | 80 to 100% | – | – | – | –
CCCO[C@@H]1[C@@H](Cc2ccc(OC)cc2)CCC[C@H](NC(=O)c2nccc(OC)c2O)C(=O)O[C@H]1C [Compound F33] | 80 to 100% | 80 to 100% | 80 to 100% | 80 to 100% | – | – | – | –
CCOCC(=O)OCOc1c(OC)ccnc1C(=O)N[C@H]1CCC[C@H](Cc2ccc(F)cc2)[C@@H](OCC(F)F)[C@H](C)OC1=O [Compound F169] | 80 to 100% | 0 to 80% | 80 to 100% | 80 to 100% | 80 to 100% | 80 to 100% | 80 to 100% | 80 to 100%
CCOCC(=O)OCOc1c(OC)ccnc1C(=O)N[C@H]1CCC[C@H](Cc2ccc(OC)cc2)[C@@H](OCC(C)C)[C@H](C)OC1=O [Compound F179] | 80 to 100% | 80 to 100% | 80 to 100% | 80 to 100% | 80 to 100% | 80 to 100% | 80 to 100% | 0 to 80%
CCOCC(=O)OCOc1c(OC)ccnc1C(=O)N[C@H]1CCC[C@H](Cc2ccc(F)cc2)[C@@H](OC(=O)C(C)C)[C@H](C)OC1=O [Compound F171] | 80 to 100% | 80 to 100% | 80 to 100% | 80 to 100% | 80 to 100% | 80 to 100% | 80 to 100% | 0 to 80%
COc1ccnc(C(=O)N[C@H]2CCC[C@H](CCF)[C@@H](OCC(C)C)[C@H](C)OC2=O)c1O [Compound F43] | 80 to 100% | 80 to 100% | 80 to 100% | 80 to 100% | – | – | – | –
COc1ccnc(C(=O)N[C@H]2CCC[C@H](Cc3ccc(F)cc3)[C@@H](OCC(F)F)[C@H](C)OC2=O)c1OCOC(C)=O [Compound F103] | 80 to 100% | 80 to 100% | 80 to 100% | 80 to 100% | 80 to 100% | 80 to 100% | 80 to 100% | 80 to 100%
COc1ccnc(C(=O)N[C@H]2CCC[C@H](CCC(C)C)[C@@H](Oc3ccccc3)[C@H](C)OC2=O)c1OC(C)=O [Compound F62] | 80 to 100% | 80 to 100% | 80 to 100% | 80 to 100% | 80 to 100% | 80 to 100% | 80 to 100% | 0 to 80%
COc1ccnc(C(=O)N[C@H]2CCC[C@H](CCOCC3CC3)[C@@H](OCC3CC3)[C@H](C)OC2=O)c1O [Compound F54] | 0 to 80% | 80 to 100% | 80 to 100% | 80 to 100% | – | – | – | –
